Where two headings read alike, the source gives them in different places.
What was measured:
Format in all cases: in vivo
[1] = test system: ducksalad (Heteranthera limosa); experiment: Test B flooded paddy test; conditions: Heteranthera limosa, Flood, 250 g ai/ha; scale of 0 to 100 where 0 is no effect and 100 is complete control; read-out: Ducksalad plant response rating
How it was run: (§1)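 2-leaf plants; pots flooded 3 cm over soil; cpd added to paddy water; depth held; greenhouse 13–15 d; visual rating vs controls, 0 = no effect, 100 = complete control.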

[2] = test system: barnyardgrass (Echinochloa crus-galli); experiment: Test B flooded paddy test; conditions: Echinochloa crus-galli, Flood, 250 g ai/ha; scale of 0 to 100 where 0 is no effect and 100 is complete control; read-out: Barnyardgrass plant response rating
How it was run: as §1

[3] = test system: sedge, umbrella (small-flower umbrella sedge, Cyperus difformis); experiment: Test B flooded paddy test; conditions: Cyperus difformis, Flood, 250 g ai/ha; scale of 0 to 100 where 0 is no effect and 100 is complete control; read-out: Sedge, Umbrella plant response rating
How it was run: as §1

rice (Oryra sativa) = experiment: Test B flooded paddy test; conditions: Oryza sativa, Flood, 250 g ai/ha; scale of 0 to 100 where 0 is no effect and 100 is complete control; read-out: Rice plant response rating
How it was run: as §1

[4] = test system: ryegrass, Italian (Italian ryegrass, Lolium multiflorum); experiment: Test A preemergence; conditions: Lolium multiflorum, pre-emergence, 240 h, read-out: Plant response rating, Ryegrass, Italian; for pest or weed control at 125 g/ha: 125 g ai/ha, visual rating after approx. 10 d, 0 to 100 scale where 0 is no effect and 100 is complete control
How it was run: (§2)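 Greenhouse, ~10 d after spray; visual injury vs untreated controls, 0 = no effect, 100 = complete control. Preemergence: directed soil spray over planted seeds. Postemergence: plants 2–10 cm, 1–2 leaf stage. Loam/sand blend. Compound in non-phytotoxic solvent with surfactant.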

[5] = test system: ragweed (common ragweed, Ambrosia elatior); experiment: Test A preemergence; conditions: Ambrosia artemisiifolia, pre-emergence, 240 h, read-out: Plant response rating, Ragweed; for pest or weed control at 125 g/ha: 125 g ai/ha, visual rating after approx. 10 d, 0 to 100 scale where 0 is no effect and 100 is complete control; for pest or weed control at 125 g/ha / pest or weed control at 500 g/ha: preemergence; for pest or weed control at 500 g/ha: 500 g ai/ha, 0 to 100 scale, 0 = no effect, 100 = complete control
How it was run: as §2

[6] = test system: giant foxtail (Setaria faberii); experiment: Test A preemergence; conditions: Setaria faberi, pre-emergence, 240 h, read-out: Plant response rating, Foxtail, Giant; for pest or weed control at 125 g/ha: 125 g ai/ha, visual rating after approx. 10 d, 0 to 100 scale where 0 is no effect and 100 is complete control; for pest or weed control at 125 g/ha / pest or weed control at 500 g/ha: preemergence; for pest or weed control at 500 g/ha: 500 g ai/ha, 0 to 100 scale, 0 = no effect, 100 = complete control
How it was run: as §2

Kochia (Kochia scoparia) = experiment: Test A preemergence; conditions: Bassia scoparia, pre-emergence, 240 h, read-out: Plant response rating, Kochia; for pest or weed control at 125 g/ha: 125 g ai/ha, visual rating after approx. 10 d, 0 to 100 scale where 0 is no effect and 100 is complete control; for pest or weed control at 125 g/ha / pest or weed control at 500 g/ha: preemergence; for pest or weed control at 500 g/ha: 500 g ai/ha, 0 to 100 scale, 0 = no effect, 100 = complete control
How it was run: as §2

[7] = test system: barnyardgrass (Echinochloa crus-galli); experiment: Test A preemergence; conditions: Echinochloa crus-galli, pre-emergence, 240 h, read-out: Plant response rating, Barnyardgrass; for pest or weed control at 125 g/ha: 125 g ai/ha, visual rating after approx. 10 d, 0 to 100 scale where 0 is no effect and 100 is complete control; for pest or weed control at 125 g/ha / pest or weed control at 500 g/ha: preemergence; for pest or weed control at 500 g/ha: 500 g ai/ha, 0 to 100 scale, 0 = no effect, 100 = complete control
How it was run: as §2

[8] = test system: pigweed (Amaranthus retroflexus); experiment: Test A preemergence; conditions: Amaranthus retroflexus, pre-emergence, 240 h, read-out: Plant response rating, Pigweed; for pest or weed control at 125 g/ha: 125 g ai/ha, visual rating after approx. 10 d, 0 to 100 scale where 0 is no effect and 100 is complete control; for pest or weed control at 125 g/ha / pest or weed control at 500 g/ha: preemergence; for pest or weed control at 500 g/ha: 500 g ai/ha, 0 to 100 scale, 0 = no effect, 100 = complete control
[9] = test system: ryegrass, Italian (Italian ryegrass, Lolium multiflorum); experiment: Test A postemergence; conditions: Lolium multiflorum, post-emergence, 240 h; for pest or weed control at 125 g/ha: 125 g ai/ha, postemergence
How it was run: as §2

[10] = test system: wheat (Triticum aestivum); experiment: Test A postemergence; conditions: Triticum aestivum, post-emergence, 240 h; for plant injury at 125 g/ha: 125 g ai/ha, postemergence
How it was run: as §2

[11] = test system: giant foxtail (Setaria faberii); experiment: Test A postemergence; conditions: Setaria faberi, post-emergence, 240 h; for pest or weed control at 125 g/ha: 125 g ai/ha, postemergence
How it was run: as §2

[12] = test system: blackgrass (Alopecurus myosuroides); experiment: Test A postemergence; conditions: Alopecurus myosuroides, post-emergence, 240 h; for pest or weed control at 125 g/ha: 125 g ai/ha, postemergence
How it was run: as §2

[13] = test system: pigweed (Amaranthus retroflexus); experiment: Test A postemergence; conditions: Amaranthus retroflexus, post-emergence, 240 h; for pest or weed control at 125 g/ha: 125 g ai/ha, postemergence
How it was run: as §2

[14] = visual injury after approximately 10 d, 0 to 100 scale (0 no effect, 100 complete control), read-out: Plant response rating, Ryegrass, Italian
[15] = visual injury after approximately 10 d, 0 to 100 scale (0 no effect, 100 complete control), read-out: Plant response rating, Wheat
[16] = visual injury after approximately 10 d, 0 to 100 scale (0 no effect, 100 complete control), read-out: Plant response rating, Foxtail, Giant
[17] = visual injury after approximately 10 d, 0 to 100 scale (0 no effect, 100 complete control), read-out: Plant response rating, Blackgrass
[18] = visual injury after approximately 10 d, 0 to 100 scale (0 no effect, 100 complete control), read-out: Plant response rating, Pigweed
[19] = Preemergence, 31 g ai/ha, 0 to 100 scale (0 no effect, 100 complete control)

Structure (SMILES) | pest or weed control at 250 g/ha [1] | pest or weed control at 250 g/ha [2] | pest or weed control at 250 g/ha [3] | pest or weed control at 250 g/ha (rice (Oryra sativa)) | pest or weed control at 125 g/ha ([4]; preemergence) | pest or weed control at 125 g/ha [5] | pest or weed control at 500 g/ha [5] | pest or weed control at 125 g/ha [6] | pest or weed control at 500 g/ha [6] | pest or weed control at 125 g/ha (Kochia (Kochia scoparia)) | pest or weed control at 500 g/ha (Kochia (Kochia scoparia)) | pest or weed control at 125 g/ha [7] | pest or weed control at 500 g/ha [7] | pest or weed control at 125 g/ha [8] | pest or weed control at 500 g/ha [8] | pest or weed control at 125 g/ha [9, 14] | plant injury at 125 g/ha [10, 15] | pest or weed control at 125 g/ha [11, 16] | pest or weed control at 125 g/ha [12, 17] | pest or weed control at 125 g/ha [13, 18] | further results
O=C1NC[C@H](c2ccc3c(c2)OCO3)[C@H]1C(=O)Nc1ccccc1F [Compound 767] | 100% | 0% | 0% | 0% | 0% | 0% | 0% | 0% | 90% | 0% | 0% | 90% | 90% | 0% | 0% | 0% | 0% | 0% | 0% | 0% | 
O=C1NC[C@H](c2ccc3c(c2)OCO3)[C@H]1C(=O)Nc1cccc(F)c1F [Compound 731] | 100% | 60% | 0% | 20% | 20% | 0% | 70% | 40% | 90% | 0% | 60% | 80% | 90% | 0% | 0% | 0% | 0% | 50% | 0% | 0% | pest or weed control at 500 g/ha ([4]; 500 g ai/ha, preemergence, 0 to 100 scale, 0 = no effect, 100 = complete control): 40%
O=C(Nc1cccc(F)c1F)[C@H]1C(=O)N(O)CC[C@@H]1c1ccc(F)cc1 [Compound 805] | 0% | 0% | 0% | 0% | 0% | 0% |  | 0% |  | 0% |  | 0% |  | 0% |  |  |  |  |  |  | pest or weed control at 31 g/ha [4, 19]: 0%; pest or weed control at 31 g/ha [5, 19]: 0%; pest or weed control at 31 g/ha [6, 19]: 0%; pest or weed control at 31 g/ha (Kochia (Kochia scoparia); [19]): 0%; pest or weed control at 31 g/ha [7, 19]: 0%; pest or weed control at 31 g/ha [8, 19]: 0%; pest or weed control at 125 g/ha ([9]; visual injury rating after approximately 10 d, read-out: Ryegrass, Italian plant response rating (0 to 100 scale, 0 no effect, 100 complete control)): 0%; pest or weed control at 31 g/ha ([9]; Postemergence, 31 g ai/ha, visual injury after approx. 10 d, 0 to 100 scale, 0 no effect, 100 complete control, read-out: Plant response rating, Ryegrass, Italian): 0%; plant injury at 125 g/ha ([10]; visual injury rating after approximately 10 d, read-out: Wheat plant response rating (0 to 100 scale, 0 no effect, 100 complete control)): 0%; plant injury at 31 g/ha ([10]; Postemergence, 31 g ai/ha, visual injury after approx. 10 d, 0 to 100 scale, 0 no effect, 100 complete control, read-out: Plant response rating, Wheat): 0%; pest or weed control at 125 g/ha ([11]; visual injury rating after approximately 10 d, read-out: Foxtail, Giant plant response rating (0 to 100 scale, 0 no effect, 100 complete control)): 0%; pest or weed control at 31 g/ha ([11]; Postemergence, 31 g ai/ha, visual injury after approx. 10 d, 0 to 100 scale, 0 no effect, 100 complete control, read-out: Plant response rating, Foxtail, Giant): 0%; pest or weed control at 125 g/ha ([12]; visual injury rating after approximately 10 d, read-out: Blackgrass plant response rating (0 to 100 scale, 0 no effect, 100 complete control)): 0%; pest or weed control at 31 g/ha ([12]; Postemergence, 31 g ai/ha, visual injury after approx. 10 d, 0 to 100 scale, 0 no effect, 100 complete control, read-out: Plant response rating, Blackgrass): 0%; pest or weed control at 125 g/ha ([13]; visual injury rating after approximately 10 d, read-out: Pigweed plant response rating (0 to 100 scale, 0 no effect, 100 complete control)): 0%; pest or weed control at 31 g/ha ([13]; Postemergence, 31 g ai/ha, visual injury after approx. 10 d, 0 to 100 scale, 0 no effect, 100 complete control, read-out: Plant response rating, Pigweed): 0%
